# What was measured:
# [1] = target: T1, acetylcholinesterase (AChE) from electrophorus electricus (Electrophorus electricus, UniProt O42275); test: biochemical; format: biochemical; conditions: for IC50: Ellman's method, 96-well plate, enzyme with compound incubated 20 min at 37 °C, phosphate buffer pH 8.0, three measurements; for Selectivity AChE: ratio of the IC50 values (BuChE/AChE), definition not given
# T1 construct: purchased Sigma-Aldrich
# Method: (§1) To determine the inhibitory properties of the tested compounds against acetylcholinesterase and butyrylcholinesterase, Ellman’s method was used. […] For each system, measurements were carried out three times. Dose–response curve functions were fitted to the obtained results.
# (§2) The following reagents were used to evaluate the inhibiting activity: acetylcholinesterase (AChE) from electrophorus electricus (Sigma-Aldrich, Saint Louis, MO, USA), butyrylcholinesterase (BuChE) from horse serum, acetylthiocholine iodide (Sigma-Aldrich, Saint Louis, MO, USA), butyrylthiocholine iodide (Sigma-Aldrich, Saint Louis, MO, USA), 5,5′-Dithiobis-(2-nitrobenzoic acid) (DTNB, Sigma-Aldrich, Saint Louis, MO, USA). The enzymes were prepared by dissolving in phosphate buffer, pH = 8.0) with the final concentration 2 U/mL for AChE and 4 U/mL for BuChE. The stock solutions of acetylthiocholine iodide (10^−3 mol/dm^3), butyrylthiocholine iodide (10^−3 mol/dm^3) and DTNB (10^−3 mol/dm^3) were prepared in phosphate buffer. The inhibitory activity of derivatives was evaluated by Ellman’s colorimetric method in a 96-well plate. First, the enzyme solution with the tested compound was incubated for 20 min at 37 °C. Next, acetylthiocholine iodide or butyrylthiocholine iodide and DTNB were added.
# [2] = target: T2, butyrylcholinesterase (BuChE) from horse serum (Equus caballus, UniProt P81908); test: biochemical; conditions: for IC50: Ellman's method, 96-well plate, enzyme with compound incubated 20 min at 37 °C, phosphate buffer pH 8.0, three measurements; for Selectivity BuChE: ratio of the IC50 values (AChE/BuChE), definition not given
# T2 construct: butyrylcholinesterase (BuChE) from horse serum; from tissue; host or cells: horse serum
# Method: as §1, §2
# T1 sequence (O42275 24-633): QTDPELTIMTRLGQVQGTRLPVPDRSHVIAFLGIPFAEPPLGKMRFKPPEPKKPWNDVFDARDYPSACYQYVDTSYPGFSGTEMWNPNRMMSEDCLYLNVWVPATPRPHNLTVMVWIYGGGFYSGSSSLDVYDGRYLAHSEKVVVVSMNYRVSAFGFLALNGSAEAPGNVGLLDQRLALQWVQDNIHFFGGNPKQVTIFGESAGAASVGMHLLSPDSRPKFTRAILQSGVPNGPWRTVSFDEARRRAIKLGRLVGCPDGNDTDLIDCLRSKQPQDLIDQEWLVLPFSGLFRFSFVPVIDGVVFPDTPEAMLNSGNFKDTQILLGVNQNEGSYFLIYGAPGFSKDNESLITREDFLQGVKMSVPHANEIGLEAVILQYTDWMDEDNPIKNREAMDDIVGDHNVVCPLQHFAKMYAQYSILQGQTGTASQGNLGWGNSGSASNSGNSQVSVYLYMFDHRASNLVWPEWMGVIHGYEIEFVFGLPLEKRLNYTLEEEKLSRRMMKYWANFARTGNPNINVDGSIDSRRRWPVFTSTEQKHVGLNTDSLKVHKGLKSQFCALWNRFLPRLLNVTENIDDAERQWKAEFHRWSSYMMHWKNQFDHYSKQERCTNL
# T2 sequence (P81908 whole entry): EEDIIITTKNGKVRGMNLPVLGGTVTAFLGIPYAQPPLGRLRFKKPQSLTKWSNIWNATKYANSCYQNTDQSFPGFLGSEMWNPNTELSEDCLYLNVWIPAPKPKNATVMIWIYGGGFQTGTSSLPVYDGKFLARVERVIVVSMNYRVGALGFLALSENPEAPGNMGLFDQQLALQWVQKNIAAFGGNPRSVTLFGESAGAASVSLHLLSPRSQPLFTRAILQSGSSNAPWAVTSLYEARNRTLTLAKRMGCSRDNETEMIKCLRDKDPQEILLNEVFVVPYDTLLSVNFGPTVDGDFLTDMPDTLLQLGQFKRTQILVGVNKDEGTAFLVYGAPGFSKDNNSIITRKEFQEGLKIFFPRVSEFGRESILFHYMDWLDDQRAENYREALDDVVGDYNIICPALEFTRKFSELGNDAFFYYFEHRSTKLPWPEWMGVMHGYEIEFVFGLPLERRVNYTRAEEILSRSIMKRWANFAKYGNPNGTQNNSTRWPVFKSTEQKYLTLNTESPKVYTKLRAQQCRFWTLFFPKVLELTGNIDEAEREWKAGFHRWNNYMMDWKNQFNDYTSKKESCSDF
smiles,measurement,setting,value
"O=C1c2ccccc2C(=O)N1CCN1CCN(c2ccccc2)CC1 [Compound I, N-[2-(4-phenyl-1-piperazinyl)ethyl]-1H-isoindole-1,3(2H)-dione]",IC50,[1],1.12 ± 0.3 µM
same,Selectivity AChE,[1],22.02
same,IC50,[2],24.7 ± 1.74 µM
same,Selectivity BuChE,[2],0.05
"O=C1c2ccccc2C(=O)N1CCN1CCOCC1 [Compound V, N-(2-morpholine)ethyl-1H-isoindole-1,3(2H)-dione]",IC50,[1],16.2 ± 2.37 µM
same,IC50,[2],> 1000 µM
O=C1c2ccccc2C(=O)N1CCN1CCc2ccccc2C1 [Compound VI],IC50,[1],1.14 ± 0.17 µM
same,Selectivity AChE,[1],45.71
same,IC50,[2],52.1 ± 9.73 µM
same,Selectivity BuChE,[2],0.02
"O=C1c2ccccc2C(=O)N1CCN1CCN(c2ccc(C(F)(F)F)cc2)CC1 [II, N-{2-[4-(4-trifluoromethylphenyl)-1-piperazinyl]ethyl}-1H-isoindole-1,3(2H)-dione]",IC50,[1],2.31 ± 0.36 µM
same,Selectivity AChE,[1],10.70
same,IC50,[2],24.7 ± 3.78 µM
same,Selectivity BuChE,[2],0.09
"O=C1c2ccccc2C(=O)N1CCN1CCN(C(c2ccccc2)c2ccccc2)CC1 [III, N-{2-[4-(4-diphenylomethylo)-1-piperazinyl]ethyl}-1H-isoindole-1,3(2H)-dione]",IC50,[1],1.94 ± 0.43 µM
same,Selectivity AChE,[1],10.95
same,IC50,[2],21.2 ± 4.84 µM
same,Selectivity BuChE,[2],0.09
O=C1c2ccccc2C(=O)N1CCN1CCN(c2ncccn2)CC1 [IV],IC50,[1],3.9 ± 0.43 µM
same,AChE inhibitory activity compared to derivative I,[1]; compared to the derivative with a benzene ring (I),about four-times less activity
same,Selectivity AChE,[1],17.66
same,IC50,[2],68.9 ± 7.82 µM
same,Selectivity BuChE,[2],0.06

# Source: article PMC11313788, “A Series of Novel 1-H-isoindole-1,3(2H)-dione Derivatives as Acetylcholinesterase and Butyrylcholinesterase Inhibitors: In Silico, Synthesis and In Vitro Studies” (Molecules, 2024)
